Experiments:
[1] = Ratio of heart weight to body weight after 1 week continuous infusion; assay type: in vivo; conditions: mice, infused continuously 1 week; GSNO 10/ng/kg/day; isoproterenol 30 mg/kg/day; combination 10 mg/kg/day GSNO plus 30 mg/kg/day isoproterenol; FIG. 1
Protocol: Mice were treated with 10/ng/kg/day of GSNO, or with PBS (control) or with isoproterenol (at a dosage of 30 mg/kg/day) or with 10 mg/kg/day of GSNO plus 30 mg/kg/day isoproterenol, infused continuously for 1 week. The animals were sacrificed and the hearts were weighed and a ratio of heart weight to body weight was determined for each case. The results are set forth in FIG. 1 where hw:bw, i.e., the legend on the vertical axis, is the ratio of heart weight to total body weight and “ISO” means isoproterenol. […] The increase in size of heart (hypertrophy) is an advantage especially in the case of a patient on a left ventricular heart assist device awaiting heart transplant and in the case of a patient who has had heart surgery and cannot be disconnected from a heart pump without loss of heart function. The asterisks in FIG. 1 mean […] compared to control.

[2] = Example I: patient with class 4 congestive heart failure; assay type: in vivo
Protocol: A person with class 4 congestive heart failure enters the hospital with shortness of breath and bradyacardia. […] The patient is subsequently switched to IV dobutamine at 10 μg per kg per minute titrated to cardiac output. Over the following three days the drug is increased to 30 μg per kg per minute to maintain cardiac output. […] The patient undergoes bypass surgery and does well even though they have been viewed as at high risk.

[3] = test system: β-adrenergic receptor; test: Saturation binding with radiolabeled 125I-cyanopindolol in purified cardiac membrane of treated mice; assay type: in vivo
Protocol: Mice were treated with 10 ng/kg/day of GSNO or PBS infused continuously for 1 week through an azlet miniosmotic pump placed subcutaneously. Another set of mice was treated for 7 days with isoproterenol (30 mg/kg/day), and the fourth and final group received for 7 days, isoproterenol (30 mg/kg/day) plus GSNO (10 ng/kg/day). The mice were sacrificed and heart tissue was removed. Saturation binding with radiolabeled 1^125-cyanopindolol was carried out in purified cardiac membrane according to the procedure of Iaccarino et al, Circulation 98, 17A3-17A9 (1998).

[4] = Example VII: patient with rheumatoid arthritis and pulmonary infiltrates; assay type: in vivo; conditions: intravenous ethyl nitrite 2 nmol per kg per minute
Description: A person with rheumatoid arthritis and pulmonary infiltrates complains of shortness of breath and knee pain.

[5] = Example V: heroine addict, dose tapering, withdrawal symptoms; assay type: in vivo, patient; conditions: ethyl nitrite intravenously 2 nmol per kg per minute
Description: A heroine addict enters a clinic where their dose is tapered gradually. In order to avoid symptoms of withdrawal, ethyl nitrite is started intravenously at 2 nmol per kg per minute and symptoms of withdrawal, including sweats and shaking, are ameliorated.

[6] = test system: GRK; test: GRK phosphorylation of synthetic peptide substrate with 32P-ATP (isolated system); assay type: biochemical; conditions: GSNO 500 μM, 50 μM, 5 μm; counts per minute; FIG. 3
Protocol: An isolated system was provided consisting of medium, GRK, standard synthetic peptide substrate and radiolabeled ^32P-adenosine triphosphate, i.e., ^32P-ATP, as a source of phosphate. Runs were carried out on the system without additives, and with 500 μM glutathione (GSH) present and with GSNO (500 μM) present or with GSNO (50 μM) present or with GSNO (5 μm) present. The amount of bound ^32P was measured in counts per minute (CPM).

[7] = Example II: patient on left ventricular assist device awaiting cardiac transplantation; assay type: in vivo; conditions: IV GSNO 4 nmol per kg per minute
Description: A person awaiting cardiac transplantation is placed a left ventricular assist device, but continues to suffer from severe shortness of breath.

[8] = Example IV: metastatic prostate cancer patient with bone pain unresponsive to opiates; assay type: in vivo; conditions: intravenous GSNO 10 nmol per kg per minute in conjunction with morphine
Description: A person with metastatic prostate cancer is suffering from severe bone pain unresponsive to opiates.

[9] = Example VI: cystic fibrosis patient with shortness of breath; assay type: in vivo; conditions: inhaled GSNO, 3 cc of a 10 mM solution, pH 7, 4×/day
Protocol: A person with cystic fibrosis enters the hospital complaining of shortness of breath. […] They are started on inhaled GSNO (3 cc of a 10 mM solution, pH 7, 4×/day).

[10] = Example III: patient who cannot be removed from bypass after coronary artery bypass grafting; assay type: in vivo; conditions: intravenous GSNO 2 nmol per kg per minute, after two hours
Description: A person with an ejection fraction of 17% undergoes coronary artery bypass grafting. The surgeons are unable to remove the patient from bypass.

For `CC(C)NCC(O)c1ccc(O)c(O)c1` (stereo not drawn) [isoproterenol, reference compound], the “ratio of heart weight to body weight (hw:bw), size of heart muscle” value [1] was “increased the size of the heart muscle”, the “symptoms (shortness of breath and bradyacardia)” value ([2]; 10 μg per minute intravenous isoproterenol) was “resolution of symptoms” and the “amount of β-adrenergic receptor” value ([3]; isoproterenol 30 mg/kg/day for 7 days, no GSNO) was 20 fmol per milligram protein.

With `CCON=O` [ethyl nitrite] the knee pain [4] was “decrease in knee pain”, the respiratory status [4] was “improvement in respiratory status” and the “symptoms of withdrawal, including sweats and shaking” value [5] was “ameliorated”.

In the case of `N[C@@H](CSN=O)C(=O)O` [S-nitroso-cysteine], the “amount of bound 32P (incorporation of 32P into substrate)” value [6] is reported as “same result of GRK inhibition and interference with substrate phosphorylation”.

For `N[C@@H](CCC(=O)N[C@@H](CSN=O)C(=O)NCC(=O)O)C(=O)O` [GSNO, S-nitrosoglutathione], the cardiac output [7] was “increase in cardiac output”, the shortness of breath [7] was “decrease in shortness of breath” and the bone pain [8] was “relieves their pain”. For the same compound, the “ratio of heart weight to body weight (hw:bw), size of heart muscle” value [1] was “increases the size of the heart muscle”, the cardiac output ([2]; IV GSNO 2 nmol per kg per minute, on dobutamine 30 μg per kg per minute, over the following 24 hours) was “improved” and the “FEV1 (acute)” value [9] was “does not change acutely”. For the same compound, the blood pressure [9] was “remains stable”, the “symptoms of shortness of breath” value ([9]; with corresponding improvement in FEV1) was “resolve over the following 48 hours” and the removal from bypass [10] was “successfully removed from bypass”. The “amount of β-adrenergic receptor” value ([3]; GSNO 10 ng/kg/day infused 1 week, no isoproterenol) was 40 fmol per mg/protein and the “amount of bound 32P (incorporation of 32P into substrate)” value [6] was “concentration dependent reduction in incorporation of ^32P”.

Source: US20030092633A1, “Preventing desensitization of receptors” (priority 2001, published 2003)
